Assay results taken from article PMC5628445, “Four terpene synthases contribute to the generation of chemotypes in tea tree (Melaleuca alternifolia)” (BMC Plant Biology, 2017).

Legend:
Assay in all cases: radiometric assay, pentane extraction and scintillation counting; Lineweaver-Burk
Assay type in all cases: biochemical, Melaleuca alternifolia
[1] = system: T1, MaTPS-Tln (terpinolene synthase); conditions: 0.25 mM manganese; 30 °C; 15 min; 3H-GPP up to 100 μM; crude E. coli extract; labelled compound
T1 construct: vector pASK-IBA7; expressed in E. coli, crude extract
Excerpt: radiometric assay, pentane extraction and scintillation counting; Lineweaver-Burk on MaTPS-Tln (terpinolene synthase)

[2] = system: T2, MaTPS-Cin (1,8-cineole synthase); MaTPS-CinA; conditions: 0.25 mM manganese; 30 °C; 10 min; 1–30 μM 3H-GPP; crude E. coli extract; labelled compound
T2 construct: vector pASK-IBA7; expressed in E. coli, crude extract
Excerpt: radiometric assay, pentane extraction and scintillation counting; Lineweaver-Burk on MaTPS-Cin (1,8-cineole synthase); MaTPS-CinA

[3] = system: T3, MaTPS-SaH (sabinene hydrate synthase); conditions: 0.25 mM manganese; 30 °C; 15 min; 1–30 μM 3H-GPP; crude E. coli extract; labelled compound
T3 construct: vector pASK-IBA7; expressed in E. coli, crude extract
Excerpt: radiometric assay, pentane extraction and scintillation counting; Lineweaver-Burk on MaTPS-SaH (sabinene hydrate synthase)

Km [1]: 21 ± 3.18 µM
Km [2]: 31 ± 6.26 µM
Km [3]: 11 ± 2 µM
Compound: CC(C)=CCC/C(C)=C/COP(=O)(O)OP(=O)(O)O [GPP]
